Biological target: AMPK
Assay: AMPK activation, enzyme-linked immunosorbent assay
Format: biochemical
Details: EC50 for AMPK activation, ELISA
How it was run: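 Activation by each compound is measured using a conventional commercial immunoassay kit.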

EC50	Structure (SMILES)
< 500 nM	N#Cc1ccc(CN2CCC(NC(=O)c3ccc(C(=O)N4CCC(S(=O)(=O)c5ccc(F)cc5)CC4)cn3)CC2)cc1 [Compound 262, N-(1-(4-cyanobenzyl)piperidin-4-yl)-5-(4-(4-fluorophenylsulfonyl)piperidine-1-carbonyl)picolinamide]
< 500 nM	N#Cc1ccc(CN2CCC(NC(=O)c3ccc(C(=O)N4CCN(c5ccc(C(=O)C(F)(F)F)cc5)CC4)cn3)CC2)cc1 [Compound 263, N-(1-(4-cyanobenzyl)piperidin-4-yl)-5-(4-(4-(2,2,2-trifluoroacetyl)phenyl)piperazine-1-carbonyl)picolinamide]
5000 to 10000 nM	O=C(NC1CCN(Cc2ccccc2)CC1)c1ccc(C(=O)NC2CCN(Cc3ccccc3)CC2)nc1 [Compound 264, N2,N5-bis(1-benzylpiperidin-4-yl)pyridine-2,5-dicarboxamide]
1000 to 5000 nM	N#Cc1ccc(CN2CCC(NC(=O)c3ccc(N4CCCC(Oc5ccc(C#N)cc5)C4)cn3)CC2)cc1 (centres unmarked) [Compound 265, N-(1-(4-cyanobenzyl)piperidin-4-yl)-5-(3-(4-cyanophenoxy)piperidin-1-yl)picolinamide]
< 500 nM	N#Cc1ccc(CN2CCC(NC(=O)c3ccc(N4CCC(C(=O)c5ccc(Cl)cc5)CC4)cn3)CC2)cc1 [Compound 266, 5-(4-(4-chlorobenzoyl)piperidin-1-yl)-N-(1-(4-cyanobenzyl)piperidin-4-yl)picolinamide]
< 500 nM	N#Cc1ccc(CN2CCC(NC(=O)c3ccc(NC4CCN(c5ccc(C#N)cc5)CC4)cn3)CC2)cc1 [Compound 267, N-(1-(4-cyanobenzyl)piperidin-4-yl)-5-(1-(4-cyanophenyl)piperidin-4-ylamino)picolinamide]
< 500 nM	CC(C)(c1ccc(F)cc1)N1CCN(C(=O)c2ccc(C(=O)NC3CCN(Cc4ccc(C#N)cc4)CC3)nc2)CC1 [Compound 268, N-(1-(4-cyanobenzyl)piperidin-4-yl)-5-(4-(2-(4-fluorophenyl)propan-2-yl)piperazine-1-carbonyl)picolinamide]
< 500 nM	N#Cc1ccc(CN2CCC(NC(=O)c3ccc(C(=O)N4CCC(Oc5ccncc5)CC4)cn3)CC2)cc1 [Compound 269, N-(1-(4-cyanobenzyl)piperidin-4-yl)-5-(4-(pyridin-4-yloxy)piperidine-1-carbonyl)picolinamide]
< 500 nM	N#Cc1ccc(CN2CCC(NC(=O)c3ccc(C(=O)N4CC[C@H](Oc5ccc(F)cc5)C4)cn3)CC2)cc1 [Compound 270, (S)—N-(1-(4-cyanobenzyl)piperidin-4-yl)-5-(3-(4-fluorophenoxy)pyrrolidine-1-carbonyl)picolinamide]
< 500 nM	N#Cc1ccc(CN2CCC(NC(=O)c3ccc(C(=O)N4CCC(C(=O)c5ccc(F)cc5F)CC4)cn3)CC2)cc1 [Compound 271, N-(1-(4-cyanobenzyl)piperidin-4-yl)-5-(4-(2,4-difluorobenzoyl)piperidine-1-carbonyl)picolinamide]
< 500 nM	O=C(Nc1ccc(Oc2ccc(F)cc2)nc1)c1ccc(C(=O)N2CCC(C(=O)c3ccc(F)cc3)CC2)cn1 [Compound 272, 5-(4-(4-fluorobenzoyl)piperidine-1-carbonyl)-N-(6-(4-fluorophenoxy)pyridin-3-yl)picolinamide]
< 500 nM	O=C(Nc1ccc(Oc2ccc(F)cc2)nc1)c1ccc(C(=O)N2CCC(Oc3ccc(F)cc3)CC2)cn1 [Compound 273, 5-(4-(4-fluorophenoxy)piperidine-1-carbonyl)-N-(6-(4-fluorophenoxy)pyridin-3-yl)picolinamide]
< 500 nM	COc1ccc(N2CCC(Nc3ccc(C(=O)NC4CCN(Cc5ccc(C#N)cc5)CC4)nc3)CC2)cc1 [Compound 275, N-(1-(4-cyanobenzyl)piperidin-4-yl)-5-(1-(4-methoxyphenyl)piperidin-4-ylamino)picolinamide]
< 500 nM	N#Cc1ccc(CN2CCC(NC(=O)c3ccc(NC4CCN(c5ccc(F)cc5)CC4)cn3)CC2)cc1 [Compound 276, N-(1-(4-cyanobenzyl)piperidin-4-yl)-5-(1-(4-fluorophenyl)piperidin-4-ylamino)picolinamide]

Reference: US9663496B2, “AMPK-activating heterocyclic compounds and methods for using the same” (Rigel Pharmaceuticals, Inc., priority 2010, dated 2017)
